Data published in patent publication US9944660B2, “Tricyclic benzoxaboroles as antibacterial agents” (Daiichi Sankyo Company, Limited, priority 2014, dated 2018).
Read-outs that look alike come from different tables or passages of the source.

How the values were obtained:
E. coli LRS = target: T1, E. coli LRS (Escherichia coli, UniProt P07813); assay: Leucine tRNA synthetase (LRS) enzyme inhibition assay; format: biochemical
T1 construct: made in house
Description: (§1) (Test Example 1) Leucine tRNA Synthetase (LRS) Enzyme Inhibition Assay [IC50]
(§2) E. coli and P. aeruginosa LRS enzymes were cloned, expressed and purified in-house. The IC50 values were determined by using following assay protocol.
(§3) Test compounds were diluted in milli-Q water. 5 μL (microliter) of test compound dilution was mixed with 20 μL of reaction mixture consisting of 100 millimolar Tris (Trizma base from Sigma), 120 millimolar potassium chloride (Sigma), […] magnesium chloride (Sigma), 50 millimolar dithiothreitol, 50 mg/mL E. coli tRNA (Roche), 150 micromolar leucine (Sigma), 0.5 microcurie of ^3H Leucine (Amersham) and 20 μL of appropriate dilution of LRS enzyme, incubate in shaker at about 30° C. for 20 minutes. The reaction was started by adding 5 μL of 40 millimolar ATP (Sigma) and incubated on shaker at the same temperature further for 20 minutes. The reaction was quenched with 150 μL ice cold trichloroacetic acid (10%). The content of each well was transferred to 96 well GF/C plates (from Pall), and washed with 150 μL of trichloroacetic acid (5%) using vacuum manifold (from Pall). Plates were dried and read using Microbeta Wallac liquid scintillation counters after adding 100 μL of scintillation cocktail (Perkin Elmer's OptiPhase ‘SuperMix’) to each well. IC50 was calculated with respect to enzyme control after subtracting background (No enzyme control) using Graph Pad Prism software.

P. aeruginosa LRS = target: T2, P. aeruginosa LRS (Pseudomonas aeruginosa, UniProt Q9HX33); assay: as above; format: biochemical; details: 3H leucine incorporation
T2 construct: made in house
Description: as §1, §2, §3

E. coli ATCC 25922 [1] = assay: MICs in Muller Hinton Broth and pooled human urine; format: cell-based; details: Escherichia coli, ATCC25922
Description: (§4) In short, bacterial cultures were streaked on Muller Hinton Agar plates and incubated at 35±2° C. for about 18 to 20 hours. Following day colony suspension was prepared in saline and adjusted to 0.5 McFarland using Densitometer. This culture was further diluted 100 fold in Muller Hinton Broth or M9 minimal media or pooled human urine and used for MIC determination. The test compounds were prepared in dimthylesulfoxide (DMSO) at concentration of 1 mg/mL, and diluted to 32 μg/mL in respective media. Further two fold serial dilution were prepared in 96 well microtiter plates. 50 μL of diluted cultures were added to all wells and incubated at 35±2° C. for about 16 to 20 hours.
(Test Example 4) MICs in Human Urine Against E. coli and K. pneumonia
Many antibacterial compounds like fluroquinolones loose activity in human urine at acidic pH (acidic urine promotes rigorous bacterial growth). MICs were performed using CLSI guidelines (2011) against E. coli 25922 in Muller Hinton Broth (MHB) and pooled human urine.

P. aeruginosa PAO1 = assay: In vivo efficacy in urinary tract infection (UTI) ascending model; design: species or system Mouse; details: 60 mg/kg body weight twice daily for 3 days, 4th day of infection
Description: (Test Example 3a) In Vivo Efficacy in Urinary Tract Infection (UTI) Model Mouse P. aeruginosa UTI ascending model was used. All animals were infected with P. aeruginosa PAO1 by intra-urethral route. Randomization was done 18 hours post infection before starting treatment. Therapy was initiated 18 hours post infection. Animals were treated with 30 mg/kg and 60 mg/kg body weight of test compounds twice daily for 3 days. Animals were sacrificed and cfu loads in kidney and bladder were detected by serial dilution platting on drug free TSA plates on day 4.

[2] = system: P. aeruginosa PAO1 (parent, MexAB del, MexAB over expression); assay: MICs against Pseudomonas efflux pump mutants; format: cell-based
Description: as §4
(Test Example 5) MICs Against Pseudomonas Efflux Pump Mutants
Multidrug-resistant (MDR) P. aeruginosa isolated from nosocomial infections in intensive care units (ICUs) are often related to altered regulation of the specific efflux pumps and porins in P. aeruginosa strains. Tested compounds that show similar activity against efflux pump overproducers and lab strains can be predictive of activity in nosocomial patients infected with MDR strains. To identify such compounds we have determined MICs against P. aeruginosa PAO1 against Efflux deleted and overproducer strains.

P. aeruginosa PAO-1 = assay: In vivo efficacy in P. aeruginosa PAO1 murine lung infection model; details: subcutaneous 75 mg/kg twice daily
Description: (Test Example 3c) In Vivo Efficacy in P. aeruginosa PAO1 Murine Lung Infection Model Overnight grown culture of P. aeruginosa PAO-1 on TSA agar was inoculated in Brain heart infusion broth (BHI, DIFCO) and grown in a shaker incubator with shaking at 110 rpm at 35±2° C. overnight. The culture was subcultured in 50 mL of BHI and incubated again at 110 rpm at 35±2° C. on a shaker incubator till the optical density of the culture reaches 0.5-0.7 units. For infection, animals were weighed, randomized and anesthetized by giving isofluorane. Under anesthesia the animals were infected with 50 μL of the inoculum prepared as above by intranasal route. The test compounds were administered at 75 mg/kg body weight by subcutaneous route after 1 hour and 6 hours post infection. Animals were euthanized, lungs were removed aseptically and homogenized in PBS (3 mL) and serial dilutions plated on TSA plates 24 hours post infection.

E. coli ATCC 25922 [3] = assay: Bacterial susceptibility testing (MIC, CLSI microdilution); format: cell-based; details: Escherichia coli, ATCC25922
Description: (§5) (Test Example 2) Method of Testing Susceptibility of Bacterial [MICs]
(§6) Minimum inhibitory concentration (MIC) were determined as recommended by the Clinical and Laboratory Standards Institute (CLSI) in 2010 (M100-520), in 2011 (M100-521), 2012 (M100-522) and in 2013 (M100-523) with minor modifications.
as §4

K. pneumoniae ATCC 13883 = assay: as above; format: cell-based; details: Klebsiella pneumoniae, ATCC13883
Description: as §5, §6, §4

P. aeruginosa = assay: as above; format: cell-based; details: Pseudomonas aeruginosa, strain not stated, read-out: MIC against P. aeruginosa
Description: as §5, §6, §4

E. coli GK00432 = assay: In vivo efficacy in E. coli murine neutropenic thigh infection model; design: species or system Swiss albino mice; details: subcutaneous
Description: (Test Example 3b) In Vivo Efficacy in E. coli Murine Neutropenic Thigh Infection Model
Efficacy of test compounds were evaluated by subcutaneous (SC) route against E. coli GK00432 in neutropenic mouse thigh infection model. Study was performed in Swiss albino mice of either sex weighing 20±2 g. Neutropenia was induced by intraperitoneal injections of cyclophosphamide given twice prior to infection (150 mg/kg, at 4 days prior to infection, and 100 mg/kg, at 1 day prior to infection). E. coli inoculum (0.1 mL) was injected intra-muscularly in the thigh muscle. After 2 hours, test compound at a dose of 30 mg/kg and 60 mg/kg body weight were administered by subcutaneous route and one group of mice (n=5) was sacrificed to evaluate total live bacterial count per thigh as baseline bacterial loads. Remaining three doses of test compound were administered by subcutaneous route after […] hours of the infection. Animals were euthanized, thigh muscles were removed aseptically and homogenized in phosphate buffered saline (3 mL) and serial dilutions plated Tryptone Soya Agar plates 26 hours post infection.

[4] = Muller Hinton Broth, read-out: E. coli ATCC 25922 MIC (μg/mL) MHB
[5] = pooled human urine pH 5.5, read-out: E. coli ATCC 25922 MIC (μg/mL) Urine pH 5.5
[6] = PAO1, read-out: MIC (μg/mL) P. aeruginosa PAO1 MexAB del
[7] = PAO1, read-out: MIC (μg/mL) P. aeruginosa PAO1 MexAB over expression
[8] = PAO1, read-out: MIC (μg/mL) P. aeruginosa PAO1 Parent

T2 sequence (Q9HX33 whole entry): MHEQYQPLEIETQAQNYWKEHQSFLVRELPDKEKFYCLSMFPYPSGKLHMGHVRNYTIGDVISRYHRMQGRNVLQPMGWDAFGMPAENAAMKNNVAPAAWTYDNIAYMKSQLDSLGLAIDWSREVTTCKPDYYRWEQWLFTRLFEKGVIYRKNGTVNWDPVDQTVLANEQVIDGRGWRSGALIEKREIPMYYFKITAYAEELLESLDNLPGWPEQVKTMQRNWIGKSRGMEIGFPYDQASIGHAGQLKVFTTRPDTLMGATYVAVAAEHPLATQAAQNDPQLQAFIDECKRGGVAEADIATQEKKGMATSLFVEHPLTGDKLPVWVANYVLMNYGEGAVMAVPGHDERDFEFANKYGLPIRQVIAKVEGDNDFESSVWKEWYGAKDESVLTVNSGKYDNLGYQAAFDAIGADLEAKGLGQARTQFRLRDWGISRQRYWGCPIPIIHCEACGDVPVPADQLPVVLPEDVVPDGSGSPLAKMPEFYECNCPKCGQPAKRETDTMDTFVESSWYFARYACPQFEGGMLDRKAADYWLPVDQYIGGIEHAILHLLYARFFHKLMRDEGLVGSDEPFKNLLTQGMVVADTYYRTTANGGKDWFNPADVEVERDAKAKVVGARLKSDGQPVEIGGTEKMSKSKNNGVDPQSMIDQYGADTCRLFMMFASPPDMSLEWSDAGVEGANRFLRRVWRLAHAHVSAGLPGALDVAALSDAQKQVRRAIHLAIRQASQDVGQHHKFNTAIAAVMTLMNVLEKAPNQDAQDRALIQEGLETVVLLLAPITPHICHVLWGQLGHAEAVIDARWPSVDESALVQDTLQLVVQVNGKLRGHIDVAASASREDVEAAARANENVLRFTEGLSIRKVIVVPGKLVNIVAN
T1 sequence (P07813 whole entry): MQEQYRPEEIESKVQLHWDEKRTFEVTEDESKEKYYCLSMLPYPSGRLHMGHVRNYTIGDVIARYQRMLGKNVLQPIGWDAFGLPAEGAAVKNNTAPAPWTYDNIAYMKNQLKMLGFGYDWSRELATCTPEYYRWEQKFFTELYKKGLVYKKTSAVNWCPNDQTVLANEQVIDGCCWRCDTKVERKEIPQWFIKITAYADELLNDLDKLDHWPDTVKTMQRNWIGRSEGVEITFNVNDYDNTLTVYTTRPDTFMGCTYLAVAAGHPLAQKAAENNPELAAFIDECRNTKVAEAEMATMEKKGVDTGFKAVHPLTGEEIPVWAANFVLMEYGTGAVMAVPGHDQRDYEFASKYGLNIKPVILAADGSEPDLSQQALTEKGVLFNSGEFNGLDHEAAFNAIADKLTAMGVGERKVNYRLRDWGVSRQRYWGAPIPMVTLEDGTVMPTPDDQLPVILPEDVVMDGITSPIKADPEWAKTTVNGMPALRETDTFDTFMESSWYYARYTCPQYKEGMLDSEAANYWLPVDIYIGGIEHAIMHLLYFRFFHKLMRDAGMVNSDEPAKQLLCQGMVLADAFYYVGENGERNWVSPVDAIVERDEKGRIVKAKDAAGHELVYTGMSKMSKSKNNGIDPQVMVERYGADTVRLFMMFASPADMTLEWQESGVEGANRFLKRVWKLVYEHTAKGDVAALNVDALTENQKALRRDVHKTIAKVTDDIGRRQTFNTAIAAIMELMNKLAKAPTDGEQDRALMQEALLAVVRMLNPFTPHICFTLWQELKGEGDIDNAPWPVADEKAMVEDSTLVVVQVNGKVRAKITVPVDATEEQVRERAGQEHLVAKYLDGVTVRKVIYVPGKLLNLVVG

| Compound | IC50 (E. coli LRS) [nM] | IC50 (P. aeruginosa LRS) [µM] | MIC (E. coli ATCC 25922 [1]; [4]) [µg/mL] | MIC (E. coli ATCC 25922 [1]; [5]) [µg/mL] | log reduction from the untreated control in bladder counts (P. aeruginosa PAO1; bladder) [log] | log reduction from the untreated control in kidney counts (P. aeruginosa PAO1; kidney) [log] | MIC [2, 6] [µg/mL] | MIC [2, 7] [µg/mL] | MIC [2, 8] [µg/mL] | log reduction in cfu from 24 hours untreated control (P. aeruginosa PAO-1) [log] | log reduction in cfu's from baseline (P. aeruginosa PAO-1) [log] | MIC (E. coli ATCC 25922 [3]) [µg/mL] | MIC (K. pneumoniae ATCC 13883) [µg/mL] | MIC (P. aeruginosa) [µg/mL] | log reduction in colony forming units (cfu) from 26 hours untreated control (E. coli GK00432; 30 mg/kg four times daily (QID)) [log] | log reduction in colony forming units (cfu) from 26 hours untreated control (E. coli GK00432; 60 mg/kg four times daily (QID)) [log] |
| --- | --- | --- | --- | --- | --- | --- | --- | --- | --- | --- | --- | --- | --- | --- | --- | --- |
| Cl.NC[C@H]1OB(O)c2ccc3c(c21)OCO3 (single isomer, unassigned) [Compound 6, hydrochloride] | < 120 | < 0.12 | – | – | – | – | – | – | – | – | – | – | – | – | – | – |
| Cl.NC[C@H]1OB(O)c2c1ccc1c2OCO1 (single isomer, unassigned) [Compound 10, hydrochloride] | 380 | 0.62 | – | – | – | – | – | – | – | – | – | – | – | – | – | – |
| Cl.NC[C@H]1OB(O)c2c1ccc1c2OCO1 (single isomer, unassigned) [Compound 10] | – | – | 2 | 4 | 3.83 | 4.18 | 1 | 1 | 1 | 3.53 | 2.07 | 2 | 0.5 | 1 | – | – |
| Cl.NCC1OB(O)c2cc3c(cc21)OCO3 (stereo not shown) [Compound 1, 3-(aminomethyl)[1,3]dioxolo[4,5-f][2,1]benzoxaborol-1(3H)-ol hydrochloride] | 1400 | > 10 | – | – | – | – | – | – | – | – | – | 4 | 4 | – | – | – |
| Cl.NCC1OB(O)c2cc3c(cc21)OCCO3 (stereo not shown) [Compound 2, 3-(aminomethyl)-6,7-dihydro[1,2]oxaborolo[3,4-g][1,4]benzodioxin-1(3H)-ol hydrochloride] | 3350 | > 10 | – | – | – | – | – | – | – | – | – | 4 | 8 | – | – | – |
| Cl.NCC1OB(O)c2c1ccc1c2CCC1 (stereo not shown) [Compound 3, 3-(aminomethyl)-3,6,7,8-tetrahydro-1H-indeno[4,5-c][1,2]oxaborol-1-ol hydrochloride] | 2500 | 2.2 | – | – | – | – | – | – | – | – | – | 1 | 1 | – | – | – |
| Cl.NCC1OB(O)c2c1ccc1c2CCCC1 (stereo not shown) [Compound 4, 3-(Aminomethyl)-6,7,8,9-tetrahydronaphtho[1,2-c][1,2]oxaborol-1(3H)-ol hydrochloride] | 4500 | 9.5 | – | – | – | – | – | – | – | – | – | 8 | 16 | – | – | – |
| Cl.NCC1OB(O)c2ccc3c(c21)OCO3 (stereo not shown) [Compound 5, 8-(aminomethyl)[1,3]dioxolo[4,5-e][2,1]benzoxaborol-6(8H)-ol hydrochloride] | 800 | 2.3 | 2 | 4 | – | – | 4 | 8 | 4 | – | – | 1 | 1 | 8 | 3.1 | 3.8 |
| Cl.NCC1OB(O)c2ccc3c(c21)OCCO3 (stereo not shown) [Compound 7, 9-(aminomethyl)-2,3-dihydro[1,2]oxaborolo[4,3-f][1,4]benzodioxin-7(9H)-ol hydrochloride] | 800 | 0.6 | – | – | – | – | – | – | – | – | – | 8 | 16 | – | – | – |
| Cl.NCC1OB(O)c2c1ccc1c2OCCO1 (stereo not shown) [Compound 8, 3-(aminomethyl)-7,8-dihydro[1,2]oxaborolo[3,4-f][1,4]benzodioxin-1(3H)-ol hydrochloride] | 2100 | 3.2 | 8 | 16 | – | – | 4 | 4 | 2 | – | – | 4 | 4 | 4 | – | – |
| Cl.NCC1OB(O)c2c1ccc1c2OCO1 (stereo not shown) [Compound 9, 3-(aminomethyl)[1,3]dioxolo[4,5-g][2,1]benzoxaborol-1(3H)-ol; hydrochloride] | 1700 | 2.7 | 8 | 8 | – | – | 2 | 4 | 2 | – | – | 2 | 2 | 2 | – | – |
| Cl.NCC1OB(O)c2cc3c(cc21)CCO3 (stereo not shown) [Compound 11, 3-(aminomethyl)-5,6-dihydrofuro[3,2-f][2,1]benzoxaborol-1(3H)-ol hydrochloride] | 2900 | > 10 | – | – | – | – | – | – | – | – | – | 4 | 4 | – | – | – |
| Cl.NCC1OB(O)c2cc3c(cc21)OCC3 (stereo not shown) [Compound 12, 3-(aminomethyl)-6,7-dihydrofuro[2,3-f][2,1]benzoxaborol-1(3H)-ol hydrochloride] | 2800 | > 10 | – | – | – | – | – | – | – | – | – | 8 | 16 | – | – | – |
